Test results published in patent US9102648B1, “Bioavailable diacylhydrazine ligands for modulating the expression of exogenous genes via an ecdysone receptor complex” (Intrexon Corporation, priority 2003, dated 2015).
pEC50: −log10 of the molar value.

Key:
[1] = target: GAL4 DBD-CfEcR(DEF)/VP16AD-MmRXRE (Choristoneura fumiferana, UniProt O77240); assay: 13B3 Assay (CHO stable cell line, luciferase reporter); conditions: for Fold Induction, 13B3 Assay, 33 uM: 33 uM ligand; for Fold Induction, 13B3 Assay, 33 uM / Fold Induction, 13B3 Assay, 3.3 uM: RLU ligand treated / RLU DMSO treated cells; for Fold Induction, 13B3 Assay, 33 uM / Fold Induction, 13B3 Assay, 3.3 uM / pEC50: average of two wells; for Fold Induction, 13B3 Assay, 3.3 uM: 3.3 uM ligand; for 13B3 assay Rel Max FI: maximum fold induction at any concentration relative to that of GS-E ligand, CHO 13B3 cells; for pEC50: read-out: 13B3 EC50, CHO 13B3 stable cell line, luciferase reporter, 48 h
Excerpt: GAL4 DBD-CfEcR(DEF)/VP16AD-MmRXRE:
The wild-type D, E, and F domains from spruce budworm Choristoneura fumiferana EcR (“CfEcR-DEF”; SEQ ID NO: 1) were fused to a GALA DNA binding domain (“Gal4DBD1-147”; SEQ ID NO: 2) and placed under the control of the SV40e promoter of pM vector (PT3119-5, Clontech, Palo Alto, Calif.). The D and E domains from Mus Musculus RXR (“MmRXR-DE”; SEQ ID NO: 11) were fused to the transactivation domain from VP16 (“VP16AD”; SEQ ID NO: 6) and placed under the control of the SV40e promoter of the pVP16 vector (PT3127-5, Clontech, Palo Alto, Calif.).
CHO cells were transiently transfected with transcription cassettes for GAL4 DBD-CJEcR(DEF) and for VP16AD-MmRXRE controlled by SV40e promoters. Stably transfected cells were selected using Hygromycin. Individually isolated CHO cell clones were transiently transfected with a GALA RE-luciferase reporter (pFR-Luc, Stratagene, La Jolla, Calif.). The 13B3 clone was selected using Zeocin.
Cells were trypsinized and diluted to a concentration of 2.5×10^4 cells mL. 100 μL of cell suspension was placed in each well of a 96 well plate and incubated at 37° C. under 5% CO2 for 24 h. Ligand stock solutions were prepared in DMSO and diluted 300 fold for all treatments. Dose response testing consisted of 8 concentrations ranging from 33 μM to 0.01 μM.
Luciferase reporter gene expression was measured 48 h after cell treatment using Bright-Glo™ Luciferase Assay System from Promega (E2650). Luminescence was detected at room temperature using a Dynex MLX microtiter plate luminometer.
(§1) Each assay was conducted in two separate wells, and the two values were averaged. Fold inductions were calculated by dividing relative light units (“RLU”) in ligand treated cells with RLU in DMSO treated cells. EC50s were calculated from dose response data using a three-parameter logistic model.

[2] = target: T1, Bombyx mori EcR (VP16 fusion, CVBE switch construct) (Bombyx mori, UniProt P49881); assay: Z3 Assay (HEK-293 cells with CVBE and 6XEcRE LacZ, β-galactosidase reporter); conditions: for Fold Induction, Z3 Assay, 3.3 uM: 3.3 uM ligand; for Fold Induction, Z3 Assay, 3.3 uM / Fold Induction, Z3 Assay, 33 uM: ligand treated / DMSO treated cells; for Fold Induction, Z3 Assay, 3.3 uM / Fold Induction, Z3 Assay, 33 uM / pEC50: average of two wells; for Fold Induction, Z3 Assay, 33 uM: 33 uM ligand; for Z3 assay Rel Max FI: maximum fold induction at any concentration relative to that of GS-E ligand; for Z3 assay Rel Max FI / pEC50: HEK-293 Z3 cells; for pEC50: read-out: Z3 assay EC50, β-galactosidase reporter
T1 sequence (P49881 86-606): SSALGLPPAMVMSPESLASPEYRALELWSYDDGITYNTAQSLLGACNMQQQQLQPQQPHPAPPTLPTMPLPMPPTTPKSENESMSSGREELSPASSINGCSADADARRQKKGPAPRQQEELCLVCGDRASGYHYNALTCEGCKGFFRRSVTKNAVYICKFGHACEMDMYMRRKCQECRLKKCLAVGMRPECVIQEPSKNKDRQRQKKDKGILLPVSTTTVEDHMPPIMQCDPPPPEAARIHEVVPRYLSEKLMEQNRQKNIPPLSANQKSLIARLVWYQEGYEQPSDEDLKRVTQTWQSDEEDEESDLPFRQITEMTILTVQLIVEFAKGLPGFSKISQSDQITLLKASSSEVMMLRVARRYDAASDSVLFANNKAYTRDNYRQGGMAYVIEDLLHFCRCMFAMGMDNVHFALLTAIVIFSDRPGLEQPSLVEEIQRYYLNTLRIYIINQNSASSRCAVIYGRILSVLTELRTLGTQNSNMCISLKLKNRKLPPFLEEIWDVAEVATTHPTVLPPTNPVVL
T1 sequence (P19793 1-462 partner): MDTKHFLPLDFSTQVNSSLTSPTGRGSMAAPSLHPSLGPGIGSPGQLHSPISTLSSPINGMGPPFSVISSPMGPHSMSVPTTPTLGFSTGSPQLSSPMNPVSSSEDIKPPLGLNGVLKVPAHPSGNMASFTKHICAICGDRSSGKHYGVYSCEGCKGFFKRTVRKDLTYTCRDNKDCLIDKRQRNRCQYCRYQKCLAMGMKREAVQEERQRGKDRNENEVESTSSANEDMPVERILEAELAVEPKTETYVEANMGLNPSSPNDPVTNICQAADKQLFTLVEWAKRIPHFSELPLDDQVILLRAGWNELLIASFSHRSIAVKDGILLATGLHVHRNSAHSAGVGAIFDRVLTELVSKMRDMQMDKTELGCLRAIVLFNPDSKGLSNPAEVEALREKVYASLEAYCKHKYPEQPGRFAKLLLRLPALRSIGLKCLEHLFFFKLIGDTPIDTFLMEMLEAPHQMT
Excerpt: Dr. F. Gage provided a population of stably transformed cells containing CVBE and 6XEcRE as described in Suhr, S. T., Gil, E. B., Senut M. C., Gage, F. H. (1998) Proc. Natl. Acad. Sci. USA 95, 7999-804. Human 293 kidney cells, also referred to as HEK-293 cells, were sequentially infected with retroviral vectors encoding first the switch construct CVBE, and subsequently the reporter construct 6XEcRE Lac Z. The switch construct contained the coding sequence for amino acids 26-546 from Bombyx mori EcR (BE) (Iatrou) inserted in frame and downstream of the VP16 transactivation domain (VBE). A synthetic ATG start codon was placed under the control of cytomegalovirus (CVBE) immediate early promoter and flanked by long terminal repeats (LTR). The reporter construct contained six copies of the ecdysone response element (EcRE) binding site placed upstream of LacZ and flanked on both sides with LTR sequences (6XEcRE).
Dilution cloning was used to isolate individual clones. Clones were selected using 450 ug/mL G418 and 100 ng/mL puromycin. Individual clones were evaluated based on their response in the presence and absence of test ligands.
Human 293 kidney cells stably transformed with CVBE and 6XEcRE LacZ were maintained in Minimum Essential Medium (Mediates, 10-010-CV) containing 10% FBS (Life Technologies, 26140-087), […] G418 (Mediates, 30-234-CR), and […] (Sigma, P-7255), at 37° C. in an atmosphere containing 5% CO2 and were subculture when they reached 75% confluence.
Z3 cells were seeded into 96-well tissue culture plates at a concentration of 2.5×10^3 cells per well and incubated at 37° C. in 5% CO2 for twenty-four hours. Stock solutions of ligands were prepared in DMSO. Ligand stock solutions were diluted 100 fold in media and 50 μL of this diluted ligand solution ([…]) was added to cells. The final concentration of DMSO was maintained at 0.03% in both controls and treatments.
Reporter gene expression was evaluated 48 hours after treatment of cells, β-galactosidase activity was measured using Gal Screen™ bioluminescent reporter gene assay system from Tropix (GSY1000). Fold induction activities were calculated by dividing relative light units (“RLU”) in ligand treated cells with RLU in DMSO treated cells. Luminescence was detected at room temperature using a Dynex MLX microtiter plate luminometer.
Flanking both constructs are long terminal repeats, G418 and puromycin are selectable markers, CMV is the cytomegalovirus promoter, VBE is coding sequence for amino acids 26-546 from Bombyx mori EcR inserted downstream of the VP16 transactivation domain, 6×EcRE is six copies of the ecdysone response element, lacZ encodes for the reporter enzyme β-galactosidase.
as §1

| SMILES | Fold Induction, 13B3 Assay, 33 uM [1] | Fold Induction, Z3 Assay, 3.3 uM [2] | Fold Induction, Z3 Assay, 33 uM [2] | Z3 assay Rel Max FI [2] | pEC50 [2] | Fold Induction, 13B3 Assay, 3.3 uM [1] | 13B3 assay Rel Max FI [1] | pEC50 [1] |
| --- | --- | --- | --- | --- | --- | --- | --- | --- |
| CCc1c(OC)cccc1C(=O)NN(C(=O)c1cc(OC)ccc1OC)C(C)(C)C [RG-100779] | 2979 | 947 | 304 | 0.707 | 6.75 | – | – | – |
| CCc1c(OC)cccc1C(=O)NN(C(=O)c1ccc(F)cc1)C(C)(C)C [RG-100812] | 202 | 1587 | 399 | 0.954 | 6.04 | – | – | – |
| CCc1ccc(C(=O)NN(C(=O)c2ccc(F)cc2)C(C)(C)C)c(F)c1 [RG-100901] | 882 | 1527 | 185 | 0.918 | 6.50 | – | – | – |
| Cc1cc(C)cc(C(=O)N(NC(=O)c2cccc([N+](=O)[O-])c2C)C(C)(C)C)c1 [RG-100915] | 525 | 532 | 1292 | 0.912 | 6.00 | 133 | 0.552 | 5.35 |
| CCc1ccccc1C(=O)N(NC(=O)c1cccc(OC)c1C)C(C)(C)C [RG-101062] | 319 | 1127 | 391 | 0.992 | 5.59 | – | – | – |
| COc1ccc(Cl)cc1C(=O)N(NC(=O)c1cccc(C)c1C)C(C)(C)C [RG-101178] | 699 | 1200 | 431 | 0.887 | 5.88 | – | – | – |
| Cc1c(Cl)cccc1C(=O)NN(C(=O)c1cccc(Cl)c1)C(C)(C)C [RG-101202] | 7 | 195 | 1 | – | 5.76 | 5 | 0.007 | 6.43 |
| Cc1cc(C)cc(C(=O)N(NC(=O)c2ccc3ncsc3c2)C(C)(C)C)c1 [RG-101312] | 1874 | 600 | 292 | 0.955 | 5.25 | – | – | – |
| Cc1c(C(=O)NN(C(=O)c2cc(Cl)cc(Cl)c2)C(C)(C)C)cccc1N(C)C [RG-101316] | 1280 | 1045 | 350 | 0.896 | 5.80 | – | – | – |
| COc1ccc(C(=O)NN(C(=O)c2cc(Cl)cc(Cl)c2)C(C)(C)C)cc1 [RG-101376] | 7393 | 1293 | 415 | 0.777 | 6.27 | 25656 | 0.654 | 5.87 |
| CCc1ccc(C(=O)NN(C(=O)c2cc(C)ccc2[N+](=O)[O-])C(C)(C)C)cc1 [RG-101398] | 159 | 1138 | 403 | 0.712 | 6.55 | – | – | – |
| COc1cccc(C(=O)NN(C(=O)c2cc(C)cc(C)c2)C(C)(C)C)c1I [RG-101528] | 3027 | 748 | 1515 | 0.923 | 5.98 | 259 | 1.111 | 4.53 |
| Cc1cc(C)cc(C(=O)N(NC(=O)c2ccc3c(c2)CCO3)C(C)(C)C)c1 [RG-101531] | 274 | 1130 | 428 | – | 7.07 | – | – | – |
| Cc1ccc(C(=O)NN(C(=O)c2cc(C)cc(C)c2)C(C)(C)C)cc1 [RG-101542] | 439 | 1151 | 324 | 0.793 | 6.49 | – | – | – |
